For orientation: viability means a read-out of living cells in per cent, often relative to untreated cells.

This assay deals with ND3 neuronal cell line. The assay can be described thus: Measurement of nerve growth stimulation effect (neurite bearing assay, neurite length assay, number of cells). The format is cell-based. To be noted: 6 hours, relative cell number, DMSO well = 1. The method, then: To evaluate the nerve growth stimulation effect, neurite bearing assay (proportion of neurite-bearing cells) and neurite length assay (neurite length) were analyzed with reference to the method of Topalli et al. (Brain Research 1030 (2004), pp. 116-124).
An ND3 neuronal cell line (European Collection of Authenticated Cell Cultures) was seeded in a DMEM medium containing 10% fetal bovine serum (0.6×10^4 cells/1 mL) in a 24-well plate. 24 hours later, the medium of seeded cells was removed, and a solution in which the compound of the present disclosure that was sequentially diluted in dimethyl sulfoxide (DMSO) was adjusted in DIEM containing 0.1% bovine serum albumin so that the DMSO final concentration was 0.1%, was added to cells (evaluation performed in duplicate). After six hours from the addition, the proportion of neurite-bearing cells (the number of cells having a neurite longer than the diameter of the cell body/number of total cells), and the neurite length per cell were analyzed. The number of total cells, proportion of neurite-bearing cells, and neurite length per cell were analyzed using a MetaMorph Neurite Outgrowth Application Module (Molecular Devices Japan K.K.). The number of cells was defined as the relative cell number, taking the number of cells per well containing DMSO as 1. The relative activity of each compound when the maximum activity of 3-(15-methoxypentadecyl)-2,4,4-trimethylcyclohexa-2-en-1-one (compound 24) in each test was defined as 1 is shown (Table 9). For the compounds for which multiple tests were conducted, the average value was shown. Data with a number of cells of 0.5 or more was also used. Accordingly, if the number of cells was less than 0.5, the neurite length per cell and the proportion of neurite-bearing cells were defined as “-”.

For `COCCCCCCCCCCCCC1=C(C)C(=O)CCC1(C)C` [Compound 11, 3-(12-methoxydodecyl)-2,4,4-trimethylcyclohex-2-en-1-one], the viability at 1 µM was 96%, the viability at 3 µM is 96%, the viability at 5 µM was 83% and the viability at 10 µM amounted to 82%. Further, the viability at 30 µM was determined as 62% and the viability at 100 µM amounted to 70%.
As to `CCOC(=O)OCCCCCCCCCCCCCCCC1=C(C)C(=O)CCC1(C)C` [Compound 57, ethyl (15-(2,6,6-trimethyl-3-oxocyclohex-1-en-1-yl)pentadecyl) carbonate], the viability at 1 µM was determined as 96%, the viability at 3 µM worked out at 93%, the viability at 5 µM amounted to 86% and the viability at 10 µM amounted to 90%. Besides, the viability at 30 µM came out at 97% and the viability at 100 µM was 100%.
Regarding `CC1=C(CCCCCCCCCCCCCCCCO)C(C)(C)CCC1=O` [Compound 5, 3-(16-hydroxyhexadecyl)-2,4,4-trimethylcyclohex-2-en-1-one, reference compound], the viability at 1 µM amounted to 111%, the viability at 3 µM was 109%, the viability at 5 µM is 105% and the viability at 10 µM is 83%. The viability at 30 µM came to 49% and the viability at 100 µM came to 40%.
As for `CCCCOCCCCCCCCCCCCCC1=C(C)C(=O)CCC1(C)C` [Compound 20, 3-(13-butoxytridecyl)-2,4,4-trimethylcyclohex-2-en-1-one], the viability at 1 µM was determined as 110%, the viability at 3 µM is 110%, the viability at 5 µM came to 96% and the viability at 10 µM was 90%. Also, the viability at 30 µM is 113% and the viability at 100 µM amounted to 117%.
Consider `CC1(C)CCC(=O)C=C1CCCCCCCCCCCCCCCO` [Compound 8, 3-(15-hydroxypentadecyl)-4,4-dimethylcyclohex-2-en-1-one, reference compound], for which the viability at 1 µM came out at 101%, the viability at 3 µM turned out to be 102%, the viability at 5 µM turned out to be 98% and the viability at 10 µM was found to be 93%. Besides, the viability at 30 µM came out at 6% and the viability at 100 µM was 9%.
As for `CCCOCCCCCCCCCCCCCC1=C(C)C(=O)CCC1(C)C` [Compound 19, 2,4,4-trimethyl-3-(13-propoxytridecyl)cyclohex-2-en-1-one], the viability at 1 µM is 98%, the viability at 3 µM worked out at 105%, the viability at 5 µM was determined as 85% and the viability at 10 µM was 88%. In addition, the viability at 30 µM came to 111% and the viability at 100 µM was found to be 105%.
Turning to `CC1=C(CCCCCCCCCCCCCCCO)CCCC1=O` [Compound 7, 3-(15-hydroxypentadecyl)-2-methylcyclohex-2-en-1-one, reference compound], the viability at 1 µM stood at 100%, the viability at 3 µM worked out at 100%, the viability at 5 µM turned out to be 87% and the viability at 10 µM came to 86%. Moreover, the viability at 30 µM is 17% and the viability at 100 µM turned out to be 19%.
On to `CC1=C(CCCCCCCCCCCCCCC(N)=O)C(C)(C)CCC1=O` [Compound 32, 15-(2,6,6-trimethyl-3-oxocyclohex-1-en-1-yl)pentadecanamide], for which the viability at 1 µM came out at 92%, the viability at 3 µM was 93%, the viability at 5 µM was found to be 81% and the viability at 10 µM was 81%. For the same compound, the viability at 30 µM was determined as 54% and the viability at 100 µM was found to be 9%.
As for `CC1=C(CCCCCCCCCCCCCCCOC(=O)c2ccccc2)C(C)(C)CCC1=O` [Compound 53, 15-(2,6,6-trimethyl-3-oxocyclohex-1-en-1-yl)pentadecyl benzoate], the viability at 1 µM was determined as 91%, the viability at 3 µM amounted to 95%, the viability at 5 µM amounted to 94% and the viability at 10 µM came out at 96%. Besides, the viability at 30 µM was determined as 105% and the viability at 100 µM was 115%.
Consider `CCOCCCCCCCCCCCCCCCCC1=C(C)C(=O)CCC1(C)C` [Compound 30, 3-(16-ethoxyhexadecyl)-2,4,4-trimethylcyclohex-2-en-1-one], for which the viability at 1 µM was determined as 88%, the viability at 3 µM was found to be 91%, the viability at 5 µM was determined as 83% and the viability at 10 µM was 87%. Besides, the viability at 30 µM turned out to be 95% and the viability at 100 µM was determined as 98%.
With `COCCCCCCCCCCCCCCCC1=C(C)C(=O)CC1` [Compound 45, 3-(15-methoxypentadecyl)-2-methylcyclopent-2-en-1-one], the viability at 1 µM is 94%, the viability at 3 µM worked out at 90%, the viability at 5 µM worked out at 74% and the viability at 10 µM amounted to 83%. Moreover, the viability at 30 µM is 71% and the viability at 100 µM was 75%.
On to `COC(C)(C)CCCCCCCCCCCCCCC1=C(C)C(O)CCC1(C)C` (stereo not drawn) [Compound 47, 3-(15-methoxy-15-methylhexadecyl)-2,4,4-trimethylcyclohex-2-en-1-ol], for which the viability at 1 µM worked out at 98%, the viability at 3 µM turned out to be 91%, the viability at 5 µM is 85% and the viability at 10 µM amounted to 89%. For the same compound, the viability at 30 µM was found to be 88% and the viability at 100 µM stood at 87%.
For `COCCCCCCCCCCCCCCCC1=C(I)C(=O)CCC1(C)C` [Compound 40, 2-iodo-3-(15-methoxypentadecyl)-4,4-dimethylcyclohex-2-en-1-one], the viability at 1 µM was determined as 94%, the viability at 3 µM is 104%, the viability at 5 µM is 97% and the viability at 10 µM is 93%. Moreover, the viability at 30 µM came out at 103% and the viability at 100 µM is 98%.
Regarding `COCCCCCCCCCCCCCC1=C(C)C(=O)CCC1(C)C` [Compound 16, 3-(13-methoxytridecyl)-2,4,4-trimethylcyclohex-2-en-1-one], the viability at 1 µM came out at 89%, the viability at 3 µM is 88%, the viability at 5 µM was found to be 71% and the viability at 10 µM was determined as 68%. The viability at 30 µM came out at 69% and the viability at 100 µM was determined as 77%.
As to `CC1=C(CCCCCCCCCCCCCCOC(C)C)C(C)(C)CCC1=O` [Compound 23, 3-(14-isopropoxytetradecyl)-2,4,4-trimethylcyclohex-2-en-1-one], the viability at 1 µM stood at 103%, the viability at 3 µM amounted to 112%, the viability at 5 µM turned out to be 98% and the viability at 10 µM came out at 95%. Further, the viability at 30 µM came out at 98% and the viability at 100 µM came out at 102%.
`COC(C)(C)CCCCCCCCCCCCCCC1=C(C)C(=O)CCC1(C)C` [Compound 48, 3-(15-methoxy-15-methylhexadecyl)-2,4,4-trimethylcyclohex-2-en-1-one]: the viability at 1 µM amounted to 85%, the viability at 3 µM came to 93%, the viability at 5 µM came to 91% and the viability at 10 µM came to 90%. In addition, the viability at 30 µM worked out at 93% and the viability at 100 µM stood at 87%.
As for `COCCCCCCCCCCCCCCC1=C(C)C(=O)CCC1(C)C` [Compound 21, 3-(14-methoxytetradecyl)-2,4,4-trimethylcyclohex-2-en-1-one], the viability at 1 µM stood at 104%, the viability at 3 µM is 111%, the viability at 5 µM was 102% and the viability at 10 µM was determined as 103%. The viability at 30 µM stood at 82% and the viability at 100 µM came to 96%.
With `CCOCCCCCCCCCCCCCCCC1=C(C)C(=O)CCC1(C)C` [Compound 25, 3-(15-ethoxypentadecyl)-2,4,4-trimethylcyclohex-2-en-1-one], the viability at 1 µM is 97%, the viability at 3 µM came to 103%, the viability at 5 µM worked out at 97% and the viability at 10 µM worked out at 97%. Moreover, the viability at 30 µM worked out at 98% and the viability at 100 µM worked out at 94%.
Consider `[2H]C([2H])(CCCCCCCCCCCCCCC1=C(C)C(=O)CCC1(C)C)OC` [Compound 28, 3-(15-methoxypentadecyl-15,15-d2)-2,4,4-trimethylcyclohex-2-en-1-one], for which the viability at 1 µM was 92%, the viability at 3 µM was determined as 86%, the viability at 5 µM stood at 71% and the viability at 10 µM came to 68%. The viability at 30 µM worked out at 77% and the viability at 100 µM stood at 86%.
Take `CCNC(=O)OCCCCCCCCCCCCCCCC1=C(C)C(=O)CCC1(C)C` [Compound 56, 15-(2,6,6-trimethyl-3-oxocyclohex-1-en-1-yl)pentadecylethylcarbamate]: the viability at 1 µM is 94%, the viability at 3 µM came out at 106%, the viability at 5 µM was found to be 93% and the viability at 10 µM was 95%. Further, the viability at 30 µM was 95% and the viability at 100 µM turned out to be 93%.
